# Assay results published in patent US12622912B2, “Application of pyrido[1,2-a]pyrimidinone analog” (GUANGZHOU JOYO PHARMATECH CO., LTD, priority 2021, dated 2026).
# Key:
# human PI3K p110α/p85α = molecular target: T1, human PI3K p110α/p85α (Homo sapiens, UniProt P42336); test: HTRF kinase activity assay, wild-type PI3Kα; format: biochemical
# T1 construct: purchased Promega V1721
# Protocol: (§1) Main reagents: human PI3K p110α/p85α (purchased from Promega, Cat. No. V1721), human PI3K p110α (E542K)/p85α (purchased from Millipore, Cat. No. 14-782), human PI3K p110α (E545K)/p85α (purchased from Millipore, Cat. No. 14-783) and human PI3K p110α (H1047R)/p85α (purchased from Millipore, Cat. No. 14-792)
# (§2) 1) Compound was prepared. The initial concentration of compound I was 100 nM, and was serially diluted 3-fold to 10 concentrations and transferred to the test plate.
# (§3) 2) Human PI3K p110α/p85α, human PI3K p110α (E542K)/p85α, human PI3K p110α (E545K)/p85α or human PI3K p110α (H1047R)/p85α and assay buffer (10 μM phosphatidylinositol 4,5-bisphosphate and Mg/ATP) were incubated. The reaction was initiated by adding ATP solution and incubated for 30 min.
# (§4) 3) After incubation for 30 minutes, the reaction was terminated by adding stop solution. The stop solution contained EDTA, biotinylated phosphatidylinositol-3,4,5-trisphosphate.
# (§5) 4) Detection buffer was added, europium-tagged anti-GST monoclonal antibody, GST-tagged GRP1 PH domain, and streptavidin allophycocyanin.
# (§6) 5) The plate was read and the HTRF value was calculated according to the formula HTRF=10000×(Em665 nm/Em620 nm). GraphPad Prism 5.0 software was used, and a S-type dosage-survival rate curve was drawn using a nonlinear regression model and IC50 value was calculated.
# [1] = molecular target: T2, human PI3K p110α (H1047R)/p85α (Homo sapiens, UniProt P42336, H1047R); test: HTRF kinase activity assay, H1047R mutant; format: biochemical
# T2 construct: purchased Millipore 14-792
# Protocol: as §1, §2, §3, §4, §5, §6
# [2] = tested on: human breast cancer BT-474 subcutaneous xenograft tumor; test: In vivo efficacy, BT-474 subcutaneous xenograft tumor model; parameters: species or system BALB/c nude mice; conditions: oral, once a day for 20 days; for Tumor volume (Day 20): Mean ± SEM; for T/C / TGI: day 20, vs Solvent 2
# Protocol: Experimental purpose: Study the in vivo efficacy of the test drug on human breast cancer BT-474 subcutaneous xenograft tumor BALB/c nude mouse model.
# (1) Cell culture: human breast cancer BT-474 cells were monolayer cultured in vitro. The culture conditions were that 10% fetal bovine serum, 100 U/ml penicillin (purchased from Gibco) and 100 μg/ml chain Mycin (purchased from Gibco) were added to Hybri-Care medium, and cultured at 37° C. and 5% CO2. Routine digestion and passage were performed with trypsin-EDTA (purchased from Gibco, product number: 25200-072) twice a week. When the cell saturation was 80%-90%, the cells are harvested, counted and inoculated.
# (2) Animals: BALB/c nude mice, female, 6 weeks old, weighing 16-18 grams. Provided by Shanghai Sippe-Bk Lab Animal Co., Ltd.
# (3) Control article: • Both PF05212384 and Everolimus were purchased from Shanghai TOPSCIENCE Biochemical Technology Co., Ltd.
# (4) Tumor inoculation: 0.2 ml (1×10^7) BT-474 cells (matrigel was added, volume 1:1) were subcutaneously inoculated on the right back of each mouse, and the mice were divided into groups and administered with drugs when the average tumor volume reached 122 mm^3. See Table 10 below for the experimental grouping and dosing regimen.
# [3] = tested on: C-33A PIK3CA-mutated cervical cancer cell line; test: CTG cell proliferation, C-33A; format: cell-based; conditions: Homo sapiens, 72 hours, read-out: Absolute IC50
# Text: (§7) (2) Reagents • 1) FBS (fetal bovine serum) (purchased from ExCell, product number: FND500); • 2) RPMI1640 medium (purchased from Hyclone, product number: SH30809.01); • 3) McCoy's 5A medium (purchased from Gibco, product number: 12330-031); • 4) MEM medium (purchased from Hyclone, product number: SH30024.01; • 5) MEM NEAA (purchased from Gibco, product number: 11140-050); • 6) Sodium pyruvate (purchased from Gibco). (3) Test Article and Positive Control Article • Test article: compound I; Positive Control Article: • 1) Alpelisib, molecular weight: 441.47; solvent: DMSO; storage condition after dissolution: −20° C.; supplier: Shanghai TOPSCIENCE Biochemical Technology Co., Ltd., CAS number: 1217486-61-7; • 2) Cisplatin, molecular weight: 300.05; solvent: PBS (phosphate buffer saline); storage condition: 2-8° C.; supplier: Qilu Pharmaceutical. (4) The CTG Method was Used to Determine the Cell Proliferation IC50 of the Compound
# (§8) Step 1: Cells in exponential growth phase were harvested, and viable cells were counted with a Vi-Cell XR cytometer. The cell suspension was adjusted to an appropriate concentration with medium. 90 μL of cell suspension was added to each well of a 96-well cell culture plate, and the final cell concentration was 1500-6000 cells/well. […]
# (§9) Step 3: After 72 hours of drug treatment, 50 μL (½ culture volume) CTG solution that was melted and equilibrated to room temperature was added to each well according to the CTG operation instruction. […] After 10 minutes, the fluorescence signal value was measured with an Envision2104 plate reader.
# (§10) Cell survival rate was calculated using the formula: Vsample/Vvehicle control×100%. Where, Vsample was the reading of the drug treatment group, and Vvehicle control was the average value of the solvent control group. GraphPad Prism 5.0 software was used, and a S-type dosage-survival rate curve was drawn using a nonlinear regression model and IC50 value was calculated.
# [4] = molecular target: T3, human PI3K p110α (E542K)/p85α (Homo sapiens, UniProt P42336, E542K); test: HTRF kinase activity assay, E542K mutant; format: biochemical
# T3 construct: purchased Millipore 14-782
# Protocol: as §1, §2, §3, §4, §5, §6
# [5] = tested on: ME-180 PIK3CA-mutated cervical cancer cell line; test: CTG cell proliferation, ME-180; format: cell-based; conditions: Homo sapiens; ME-180, CTG, 72 hours; read-out: Absolute IC50
# Text: as §7, §8, §9, §10
# [6] = tested on: Ca Ski PIK3CA-mutated cervical cancer cell line; test: CTG cell proliferation, Ca Ski; format: cell-based; conditions: Homo sapiens, 72 hours, read-out: Absolute IC50
# Text: as §7, §8, §9, §10
# T2 sequence (P42336 whole entry H1047R): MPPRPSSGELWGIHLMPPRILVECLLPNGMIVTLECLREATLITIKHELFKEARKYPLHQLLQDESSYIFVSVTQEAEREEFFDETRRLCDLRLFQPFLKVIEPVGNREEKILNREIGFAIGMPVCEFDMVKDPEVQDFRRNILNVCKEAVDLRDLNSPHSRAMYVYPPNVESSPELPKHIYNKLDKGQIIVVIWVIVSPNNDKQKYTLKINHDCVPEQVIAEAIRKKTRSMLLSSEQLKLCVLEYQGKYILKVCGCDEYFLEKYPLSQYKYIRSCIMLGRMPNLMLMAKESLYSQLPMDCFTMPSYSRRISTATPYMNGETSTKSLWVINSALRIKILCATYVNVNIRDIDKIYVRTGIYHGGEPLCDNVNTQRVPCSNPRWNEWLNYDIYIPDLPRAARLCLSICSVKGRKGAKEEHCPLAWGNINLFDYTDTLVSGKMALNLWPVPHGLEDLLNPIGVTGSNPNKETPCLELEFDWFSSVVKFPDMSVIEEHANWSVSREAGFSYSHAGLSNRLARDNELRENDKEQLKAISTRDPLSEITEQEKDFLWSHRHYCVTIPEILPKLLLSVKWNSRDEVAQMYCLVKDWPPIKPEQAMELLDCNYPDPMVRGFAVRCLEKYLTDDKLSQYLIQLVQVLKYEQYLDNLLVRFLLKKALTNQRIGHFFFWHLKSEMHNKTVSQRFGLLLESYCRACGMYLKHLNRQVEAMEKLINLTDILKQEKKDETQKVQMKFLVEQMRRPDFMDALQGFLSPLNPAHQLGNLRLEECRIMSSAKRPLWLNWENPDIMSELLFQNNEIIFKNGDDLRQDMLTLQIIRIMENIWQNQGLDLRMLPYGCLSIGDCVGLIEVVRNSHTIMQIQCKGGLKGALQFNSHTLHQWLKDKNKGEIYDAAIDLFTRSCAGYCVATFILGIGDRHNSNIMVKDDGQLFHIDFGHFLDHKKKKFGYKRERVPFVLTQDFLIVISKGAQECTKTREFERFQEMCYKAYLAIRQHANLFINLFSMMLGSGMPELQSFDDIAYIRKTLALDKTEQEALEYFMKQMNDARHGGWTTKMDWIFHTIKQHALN
# T2 sequence (P27986 whole entry partner): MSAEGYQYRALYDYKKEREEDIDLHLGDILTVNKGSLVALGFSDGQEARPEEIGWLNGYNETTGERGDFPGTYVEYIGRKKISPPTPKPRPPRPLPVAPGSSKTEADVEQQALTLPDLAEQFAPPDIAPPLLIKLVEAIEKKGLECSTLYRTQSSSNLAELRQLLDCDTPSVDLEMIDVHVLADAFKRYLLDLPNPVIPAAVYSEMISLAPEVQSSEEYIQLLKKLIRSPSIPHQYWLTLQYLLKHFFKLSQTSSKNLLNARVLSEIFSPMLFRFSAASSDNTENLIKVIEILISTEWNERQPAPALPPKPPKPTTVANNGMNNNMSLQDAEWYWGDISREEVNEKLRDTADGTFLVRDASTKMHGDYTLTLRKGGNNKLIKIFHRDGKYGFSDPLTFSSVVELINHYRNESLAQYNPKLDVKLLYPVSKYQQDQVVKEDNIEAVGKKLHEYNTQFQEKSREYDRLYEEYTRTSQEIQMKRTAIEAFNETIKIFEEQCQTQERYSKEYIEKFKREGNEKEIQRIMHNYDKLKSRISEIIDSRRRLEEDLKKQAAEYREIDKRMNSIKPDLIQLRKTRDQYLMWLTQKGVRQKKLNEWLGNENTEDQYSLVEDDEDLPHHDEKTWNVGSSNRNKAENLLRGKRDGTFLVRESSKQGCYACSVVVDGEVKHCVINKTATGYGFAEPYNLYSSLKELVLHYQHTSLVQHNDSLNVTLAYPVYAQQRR
# T1 sequence (P42336 whole entry): as the sequence (P42336 whole entry H1047R) above, with R1047H counted along it
# T1 sequence (P27986 whole entry partner): as the sequence (P27986 whole entry partner) above
# T3 sequence (P42336 whole entry E542K): as the sequence (P42336 whole entry H1047R) above, with E542K, R1047H counted along it
# T3 sequence (P27986 whole entry partner): as the sequence (P27986 whole entry partner) above
compound,measurement,setting,value
COCCOc1cnc2ccc(-c3cnc(OC)c(NS(=O)(=O)c4sc(C)nc4C)c3)cn2c1=O [Compound I],IC50,human PI3K p110α/p85α,1 nM
same,IC50,[1],2 nM
same,Tumor volume (Day 20),[2]; 0.05 mg/kg,194 ± 49 mm^3
same,T/C,[2]; 0.05 mg/kg,44%
same,TGI,[2]; 0.05 mg/kg,77%
same,Tumor volume (Day 20),[2]; 0.1 mg/kg,94 ± 12 mm^3
same,T/C,[2]; 0.1 mg/kg,23%
same,TGI,[2]; 0.1 mg/kg,109%
same,Tumor volume (Day 20),[2]; 0.3 mg/kg,68 ± 8 mm^3
same,T/C,[2]; 0.3 mg/kg,16%
same,TGI,[2]; 0.3 mg/kg,118%
same,IC50,[3],180 nM
same,IC50,[4],3 nM
same,IC50,[5],15 nM
same,IC50,[6],39 nM
